Laboratory results: article PMC4170105 (Journal of nuclear medicine : official publication, Society …, 2013)
Read-outs that look alike come from different tables or passages of the source. Blank lines part the entries; values can stand above or below the compound they belong to.

Key:
[1] = tested on: S2Rs; details: no reference given, cited from earlier work
[2] = target: T1, S1Rs (Rattus norvegicus, UniProt Q9R0C9); assay: Blocking biodistribution in rats pretreated with S1R ligands; format: in vivo; details: pretreatment 1 mg/kg
[3] = target: T1, S1Rs; assay: Rat brain PET/CT imaging, baseline and BD1047 blocking; format: in vivo; details: BD1047 1 mg/kg i.v. 10 min before tracer; 50–60 min after injection
[4] = target: S1Rs; details: cited from earlier work
[5] = tested on: 5-HT2 receptors; details: no reference given; cited from earlier work
[6] = Stability in human liver microsomes; format: in vitro ADME; details: errors SEM
[7] = cited from earlier work
[8] = tested on: S1Rs
[9] = target: T1, S1Rs; assay: Ex vivo autoradiography of rat brain and muscle sections; format: in vivo; details: baseline
[10] = Ex vivo stability in rat plasma and brain homogenates
[11] = Ex vivo biodistribution in rats; details: rat
[12] = monkey plasma
[13] = mouse liver microsomes; errors SEM; previously reported; cited from earlier work
[14] = 5 min after injection, i.v., n = 4

T1 sequence (Q9R0C9 whole entry): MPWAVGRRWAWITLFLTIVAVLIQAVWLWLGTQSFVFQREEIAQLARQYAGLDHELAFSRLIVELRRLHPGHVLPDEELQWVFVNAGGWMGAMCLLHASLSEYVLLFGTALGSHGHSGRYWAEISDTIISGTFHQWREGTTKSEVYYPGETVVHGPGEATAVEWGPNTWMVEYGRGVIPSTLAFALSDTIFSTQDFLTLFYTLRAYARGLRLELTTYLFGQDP

Structure (SMILES): CN(C)CCN(C)CCc1ccc(Cl)c(Cl)c1 [BD1047]
fold lower affinity for S2Rs than for S1Rs [1]: approximately 50 fold
Ki ([1]; read-out: Ki for S2Rs): 47 nM
radioactive signal in bone/skull of pretreated rats compared with baseline rats ([2]; 60 min after injection): did not display this same trend
reduction in radiotracer binding in liver, pancreas, and heart ([2]; P < 0.05, < 0.05, < 0.005): significant reduction
reduction in ^18F-FTC-146 accumulation in rat brain (PET/CT) [3]: 86%
Ki ([4]; read-out: Ki for S1Rs, no reference given): 0.93 nM
affinity for 5-HT2 receptors [5]: low micromolar affinity

t1/2 [6]: 18.2 min
Structure (SMILES): O=c1sc2cc(CCCF)ccc2n1CCN1CCCCCC1 [FTC-146]

Structure (SMILES): COc1ccc(CCN2CCN(CCCc3ccccc3)CC2)cc1OC [^11C-SA4503]
unchanged radioligand in monkey plasma ([7]; 90 min after injection): 31%

Structure (SMILES): COc1cc(CCN2CCN(CCCc3ccccc3)CC2)ccc1OCC[18F] [^18F-FE-SA4503]
parent compound present in monkey plasma ([7]; 120 min after injection of tracer): 23%

Structure (SMILES): O=c1sc2cc(CCCF)ccc2n1CCN1CCCCCC1 [^18F-FTC-146]
Ki ([4]; read-out: affinity for S1Rs, in vitro binding): 0.0025 nM

Structure (SMILES): O=c1sc2cc(CCC[18F])ccc2n1CCN1CCCCCC1 [^18F-FTC-146]
average maximum uptake in all analyzed brain regions ([8]; monkey, in vivo, 0.25 h): approximately 0.4 %ID/g
uptake in cerebellum ([8]; monkey, in vivo, 1 h): 0.27 %ID/g
uptake in occipital cortex ([8]; monkey, in vivo, 1 h): 0.27 %ID/g
uptake in striatum ([8]; monkey, in vivo, 1 h): 0.20 %ID/g
brain uptake level after gradual washout ([8]; monkey, in vivo, 2 h): approximately 0.25 %ID/g
uptake in corpus callosum and muscle (autoradiography) [9]: little, if any, uptake
t1/2 [6]: 18.2 ± 3.6 min
percentage intact radiotracer in plasma ([10]; 15 min after injection): 27.1% ± 5.3%
percentage intact radiotracer in plasma ([10]; 30 min after injection): 25.3% ± 1.3%
percentage intact radiotracer in plasma ([10]; 60 min after injection): 19.5% ± 4.4%
time of peak uptake in the brain [11]: 15 min
uptake in kidney [11, 14]: 2.14 ± 0.29 %ID/g
uptake in lung [11, 14]: 4.91 ± 0.63 %ID/g
uptake in pancreas [11, 14]: 1.58 ± 0.21 %ID/g
uptake in spleen [11, 14]: 1.34 ± 0.35 %ID/g
decrease of accumulation in the lungs ([11]; from 5 to 60 min after injection): 75%
uptake in blood and muscle ([11]; throughout the duration of the study): Negligible uptake
washout of radiotracer uptake in pancreas, liver, and spleen ([11]; throughout the study (5-60 min)): did not significantly wash out
intact ^18F-FTC-146 in plasma ([12]; 5 min): 60%
intact ^18F-FTC-146 in plasma ([12]; 15 min): 35%
intact parent tracer in plasma (lower plateau) ([12]; between 50 and 110 min): 15%
t1/2 [13]: 4.2 ± 0.6 min

Structure (SMILES): O=C(CCCN1CCC(O)(c2ccc(Cl)cc2)CC1)c1ccc(F)cc1 [haloperidol, reference compound]
decrease of ^18F-FTC-146 binding in occipital cortex ([8]; haloperidol 0.1 mg/kg 10 min before radioligand, 60–75 min after injection): 53%
